Results taken from PMC4743981, “Immunomodulatory and Anti-Inflammatory Activities of Chicken Cathelicidin-2 Derived Peptides” (PLoS ONE, 2016).
Like-named read-outs stand apart in the source and are kept apart here. Ends that are not written are not given here.

Assays:
S. minnesota LPS = experiment: LPS binding affinity, dansyl-polymyxin B displacement; set-up: species or system Salmonella minnesota; conditions: concentration of peptide needed to displace 50% of Dansyl-labeled polymyxin from S. minnesota LPS micelles, unsubstituted (Phe) peptide, read-out: I50 (Phe)
Procedure: Dansyl-polymyxin B was prepared and quantitated as described by Schindler and Teuber. Subsequently, the capacity of peptides to displace dansyl-labeled polymyxin B complexed to S. minnesota LPS was determined according to Moore et al..

[1] = tested on: Avian pathogenic Escherichia coli O78; format: cell-based; conditions: Avian pathogenic O78, 3 h
Procedure: Avian pathogenic Escherichia coli O78 (field isolate, Zoetis, Kalamazoo, MI) was cultured in Mueller-Hinton broth at 37°C. Overnight grown cultures were diluted to a density of 2×10^6 CFU/ml in Mueller-Hinton broth (non cation-adjusted, Oxoid Ltd., Hampshire, UK) and mixed in a 96 wells polypropylene microwell plate at a 1:1 ratio with peptide (final concentration: 1.25 to 40 μM). After 3 h incubation samples were serially diluted in medium, plated on trypton soy agar (Oxoid Ltd., Hampshire, UK) media and counted after 24 h incubation at 37°C.

[2] = tested on: NO production by HD11 cells; experiment: Peptide-induced nitric oxide production by HD11 cells (Griess); format: cell-based, chicken; conditions: 24 h exposure to 20 μM peptide without LPS, data not shown
Procedure: HD11 cells were a kind gift of dr. Jos van Putten (department of Infectious diseases and Immunology, Utrecht University, The Netherlands). HD11 cells were seeded in 96 wells tissue culture treated plates (1×10^5 cell/mL) and incubated for 18 h at 37°C (5% CO2) before treatment. For peptide-induced effects cells were treated with RPMI-1640 medium containing 20 μM peptide during 4 h or 24 h. In LPS neutralization experiments, final concentrations of 50–100 ng/ml LPS were pre-incubated with or without 20 μM peptide for 30 min at 37°C (5% CO2), applied to the cells and incubated for 4 h. […] RNA quantity and purity were tested using a Nanodrop ND-1000 spectrophometer (Nanodrop Technologies, Wilmington, DE). Cytotoxicity of peptides was determined using the cell viability reagent WST-1 (Roche) as described previously, and by measuring LDH release after 24 h exposure. LDH activities in supernatant cell fractions were measured using the Cytoxicity Detection Kit PLUS (Roche) according the manufacturers recommendations and expressed as the % of released LDH relative to the total LDH activity.
Nitric oxide production was assessed as the accumulation of nitrite (NO2^−) in cell supernatants during a 24 h incubation period. Nitrite concentrations were determined using a colorimetric reaction with the Griess reagent using (from 1 to 50 μM) sodium nitrite dissolved in water as standards. […]

CXCLi2/IL-8 = experiment: Peptide-induced CXCLi2 transcription in HD11 cells (real time PCR); format: cell-based, chicken; conditions: 1 to 20 μM peptide, 4 h or 24 h, real time QPCR
Procedure: (§1) HD11 cells were a kind gift of dr. Jos van Putten (department of Infectious diseases and Immunology, Utrecht University, The Netherlands). HD11 cells were seeded in 96 wells tissue culture treated plates (1×10^5 cell/mL) and incubated for 18 h at 37°C (5% CO2) before treatment. For peptide-induced effects cells were treated with RPMI-1640 medium containing 20 μM peptide during 4 h or 24 h. In LPS neutralization experiments, final concentrations of 50–100 ng/ml LPS were pre-incubated with or without 20 μM peptide for 30 min at 37°C (5% CO2), applied to the cells and incubated for 4 h. To examine neutralization of LPS-primed cells HD11 cells were exposed for 30 min to 100–1000 ng/ml S. minnesota LPS, washed once and incubated during 4 h in the absence or presence of 20 μM Peptide. Supernatants were collected for the determination of nitric oxide production (24 h incubations only). […] RNA quantity and purity were tested using a Nanodrop ND-1000 spectrophometer (Nanodrop Technologies, Wilmington, DE). Cytotoxicity of peptides was determined using the cell viability reagent WST-1 (Roche) as described previously, and by measuring LDH release after 24 h exposure. LDH activities in supernatant cell fractions were measured using the Cytoxicity Detection Kit PLUS (Roche) according the manufacturers recommendations and expressed as the % of released LDH relative to the total LDH activity. […]

[3] = tested on: IL-1β transcription in LPS-primed HD11 cells; experiment: Neutralization of IL-1β transcription in LPS-primed HD11 cells; format: cell-based, chicken; conditions: HD11 cells primed 30 min with S. minnesota LPS (100–1000 ng/ml), washed once, 4 h with 20 μM peptide; real time QPCR
Procedure: as §1

MCP-3 = experiment: Peptide-induced MCP-3 transcription in HD11 cells (real time PCR); format: cell-based, chicken; conditions: 1 to 20 μM peptide, 4 h or 24 h, real time QPCR
Procedure: as §1

In the case of Polymyxin B, the IC50 (S. minnesota LPS; listed as polymyxin B) is reported as 4.19 µM and the IC50 (S. minnesota LPS) is reported as 3.46 ± 0.17 µM.
For RKIRRFRPKVTITIQ-NH2 [C(7–21)], the MIC [1] was 8.3 ± 2.9 µM.
With RRFRPKVTITIQ-NH2 [C(10–21)] the MIC [1] was 6.7 ± 2.9 µM.
Compound RWLRKIRRWRPKVTITIQ-NH2 [C(4–21)W2] has an MIC [1] of 8.3 ± 2.9 µM.
RFLRKIRRFRPKVTITIQ-NH2 [C(4–21)] was tested, and the MIC [1] was 6.7 ± 2.9 µM.
Compound RWGRWLRKIRRWRPKVTITIQ-NH2 [C(1–21)W3] has an MIC [1] of 13.3 ± 5.8 µM.
Work on RRYRPKVTITIQ-NH2 [C(10–21)Y] yielded an MIC [1] of 16.7 ± 5.8 µM.
RFGRFLRKIRRFRPK [C(1–15)] gave an MIC [1] of 16.7 ± 5.8 µM.
Compound RFRPKVTITIQ-NH2 [C(11–21)] has an MIC [1] of 8.3 ± 2.9 µM.
With FLRKIRRFRPKVTITIQ-NH2 [C(5–21)] the MIC [1] was 8.3 ± 5.8 µM.
For RFGRFLRKIRRFRPKVTITIQGSARF-NH2 [CATH-2], the MIC [1] was 5.0 ± 0.0 µM.
RYGRYLRKIRRYRPKVTITIQ-NH2 [C(1–21)Y3] showed an MIC [1] of 10.0 ± 0.0 µM.
Work on IRRFRPKVTITIQ-NH2 [C(9–21)] yielded an MIC [1] of 8.3 ± 2.9 µM.
Work on RYLRKIRRYRPKVTITIQ-NH2 [C(4–21)Y2] yielded an MIC [1] of 10.0 ± 0.0 µM.
RRWRPKVTITIQ-NH2 [C(10–21)W] was tested, and the MIC [1] was 11.7 ± 7.6 µM.
RKIRRWRPKVTITIQ-NH2 [C(7–21)W] gave an MIC [1] of 13.3 ± 5.8 µM.
RFGRFLRKIRRFRPKVTITIQ-NH2 [C(1–21)] showed an MIC [1] of 13.3 ± 5.8 µM.
With KIRRFRPKVTITIQ-NH2 [C(8–21)] the MIC [1] was 11.7 ± 7.6 µM.
RKIRRYRPKVTITIQ-NH2 [C(7–21)Y] showed an MIC [1] of 11.7 ± 7.6 µM.
For `CC[C@H](C)[C@H](NC(=O)[C@H](CCCCN)NC(=O)[C@H](CCC(=O)O)NC(=O)[C@H](CCCCN)NC(=O)[C@H](CO)NC(=O)[C@H](CCCCN)NC(=O)[C@H](CCCNC(=N)N)NC(=O)[C@H](Cc1ccccc1)NC(=O)[C@H](Cc1ccccc1)NC(=O)[C@H](CC(=O)O)NC(=O)CNC(=O)[C@H](CC(C)C)NC(=O)[C@@H](N)CC(C)C)C(=O)NCC(=O)N[C@@H](CCCCN)C(=O)N[C@@H](CCC(=O)O)C(=O)N[C@@H](Cc1ccccc1)C(=O)N[C@@H](CCCCN)C(=O)N[C@@H](CCCNC(=N)N)C(=O)N[C@H](C(=O)N[C@H](C(=O)N[C@@H](CCC(N)=O)C(=O)N[C@@H](CCCNC(=N)N)C(=O)N[C@H](C(=O)N[C@@H](CCCCN)C(=O)N[C@@H](CC(=O)O)C(=O)N[C@@H](Cc1ccccc1)C(=O)N[C@@H](CC(C)C)C(=O)N[C@@H](CCCNC(=N)N)C(=O)N[C@@H](CC(N)=O)C(=O)N[C@@H](CC(C)C)C(=O)N[C@H](C(=O)N1CCC[C@H]1C(=O)N[C@@H](CCCNC(=N)N)C(=O)N[C@H](C(=O)N[C@@H](CCC(=O)O)C(=O)N[C@@H](CO)C(=O)O)[C@@H](C)O)C(C)C)[C@@H](C)CC)C(C)C)[C@@H](C)CC` [LL37], the “increase of NO levels” value [2] was 2 fold, the “induction of CXCLi2 transcription (in words)” value (CXCLi2/IL-8) was “inducing the transcription” and the “inhibition of IL-1β transcription induced by LPS priming (in words)” value [3] was “strongly inhibited”. For the same compound, the IC50 (S. minnesota LPS) was 0.28 ± 0.04 µM and the “induction of MCP-3 transcription (in words)” value (MCP-3) was “inducing the transcription”.
